Experiments:
[1] = test system: F2 population of Crocus*2/EM2//CDC Tea1/3/2*AC Superb crossed by AC Avonlea; assay: Herbicide selection in F2 of EM2 conversion x AC Avonlea; type: in vivo, T. aestivum x T. turgidum; conditions: at least a 20 g/h rate of imazamox
Experimental: (§1) T. aestivum was used as the bridging species to transfer the EM2 gene from T. monococcum to T. turgidum. In each generation, plants were treated with at least a 20 g/h rate of imazamox prior to selecting plants as parents. An intermediate T. aestivum conversion with the pedigree “Crocus*2/EM2//CDC Tea1/3/2*AC Superb” tolerant to imazamox was crossed by the durum line AC Avonlea. The resultant F1 plants were selfed to produce an F2 population, from which 52/390 plants were identified as resistant (no injury from herbicide application). Some of these were used as females and crossed by AC Avonlea. The resultant BC1F1 plants were again crossed by AC Avonlea. For the subsequent two generations, AC Avonlea was used as the female. The resultant line was designated 00DIMI#17 and had the pedigree: AC Avonlea*2/3/Crocus*2/EM2//CDC Tea1/3/2*AC Superb//3*AC Avonlea. This line was selfed to the F2, and F2 plants treated with 40 g/h of imazamox. Resistant F2 plants were advanced to the F4 generation.

[2] = test system: BW755 (FS4 only line); assay: Seedling injury rating, one-gene line; type: in vivo, wheat; conditions: 200 and 600 grams per hectare
Experimental: (§2) Four genotypes were tested for tolerance to two different rates of imazamox. Genotypes included an FS4 only line, BW755; Tea1 15A, previously described as having two independent loci for tolerance to Imi-herbicides; a double-haploid derived line of EM2+FS4, and a line derived from the cross of 15A and 11A, through conventional bulk selection of the most tolerant plants over successive generations at increasing rates of imazamox. Rates of imazamox included 200 and 600 grams per hectare. Seedling injury of the 18 to 25 plants per treatment per genotype was rated on a per plant basis using five categories ranging from death to no injury.

[3] = test system: backcross-derived plants in populations P00.35 and P00.45; assay: Segregation of backcross-derived plants P00.35 and P00.45; type: in vivo, T. aestivum; conditions: 20 g/h of imazamox; single heterozygous tolerance gene
Source text: (§3) EMIMI is the designation of the T. monococcum EM2 source parent. Crocus is the designation of the T. aestivum ssp aestivum parent used. 605 florets of crocus were pollinated with EMIMI pollen, resulting in 84 F1 seed. 38,409 florets of the F1 plants were pollinated using Crocus pollen, resulting in 2 embryos which were embryo-rescued. The resultant BC1F1 plants were selfed to BC1F2 and treated with 20 g/ha of imazamox. […] Resistant plants were crossed by the bread wheat variety Tea1, representing the 3rd dose of bread wheat. Plants of the resultant line, with a pedigree of Crocus*2/EMIMI//CDC Tea1/3/ were crossed with either AC Elsa or AC Superb and coded respectively, 98PH8 (Elsa cross) and 98PH9 (Superb cross), 98PH8 was crossed an additional six times with AC Elsa and 98PH8 was crossed an additional six times with AC Superb. Two populations were coded as follows: • P00.35=98PH8/6*Elsa=Crocus*2/EM2//CDC Tea1/3/7*AC Elsa • P00.45=98PH9/6*Superb=Crocus*2/EM2//CDC Tea1/3/7*AC Superb. Segregation of the backcross-derived plants in both populations fit an expected 1:1 tolerant:susceptible single gene model when treated with 20 g/h of imazamox. […] Doubled haploids were produced from each population using the maize pollination method. Seven resistant DH lines were obtained from P00.35 and 78 resistant DH lines were obtained from P00.45.

[4] = test system: EMS-treated Triticum monococcum accession TM23; assay: Selection of tolerant plants after EMS mutagenesis; type: in vivo; conditions: 40 g/ha of imazamox, approximately 2.4 million plants treated
Experimental: (§4) Approximately 15,000 seeds of the Triticum monococcum spring habit accession “TM23” was treated with EMS. The method used was: (1) presoak seed in water for four hours, (2) treat with 0.3% EMS for 16 hours, (3) rinse in water for 8 hours, (4) air-dry for four hours, and (5) plant the seed. Some of the harvested seed was further increased without selection for tolerance to imidazolinone herbicides. The harvested seed was planted and treated with 40 g/ha of imazamox. A total of 120 kg of seed was planted, resulting in approximately 2.4 million plants treated, assuming a kernel weight of 35 mg and 70% seedling emergence. The generation of seed screened ranged from M2 to M5, with over 72% of seed at least M3. Five plants were identified as tolerant, designated EM1 through EM5, and transplanted to a greenhouse for seed production. EM2 was increased under imidazolinone herbicide selection prior to initial field testing (Example 4).

[5] = test system: EM2 line in Einkorn background; assay: Field evaluation of herbicide injury, EM2 line; type: in vivo, Triticum monococcum; conditions: for overall crop injury: three rates of imazamox
Experimental: as §4
(§5) The EM2 line tolerant to imazamox (Example 1) was evaluated at a single field location for various agronomic characteristics that could be affected by herbicide injury. The 1998 data are means of two replications. Yield data from 1999 and 2000 are means of four replications. The other data from 1999 are means of two replications.
(§6) The EM2 line was evaluated for overall crop injury at three rates of imazamox, three times during the growing season.

[6] = test system: line derived from the cross of 15A and 11A; assay: Seedling injury rating, three-gene line; type: in vivo, wheat
Experimental: as §2

[7] = test system: 00DIMI#17 (EM2 in durum background); assay: Tolerance of EM2 durum recovery 00DIMI#17; type: in vivo, T. turgidum ssp durum
Experimental: as §1
(§7) The breeding history of the lines tested was previously described (Example 2). […] The doubled haploid derived line P00.45, composed of EM2 in a hexaploid background, was tolerant to 20 g/ha imazamox as a parental check in allelism studies described in Example 3; all plants of the susceptible hexaploid check were killed at that rate.

[8] = test system: Einkorn check (non-herbicide tolerant); assay: Field evaluation of herbicide injury, Einkorn check; type: in vivo, Triticum monococcum
Experimental: as §5, §6

[9] = test system: P00.45 (EM2 in a hexaploid background); assay: Tolerance of doubled haploid line P00.45 (parental check in allelism studies); type: in vivo, T. aestivum ssp aestivum; conditions: 20 g/ha imazamox
Source text: as §3, with “P00.45. […]” for “P00.45.”

[10] = test system: BC1F2 plants of Crocus*2/EMIMI; assay: Herbicide treatment of BC1F2 plants (Crocus x EMIMI); type: in vivo, T. aestivum x T. monococcum; conditions: 20 g/ha of imazamox, 24 plants treated
Source text: as §3

[11] = test system: double-haploid derived line of EM2+FS4; assay: Seedling injury rating, two-gene line EM2+FS4; type: in vivo, wheat
Experimental: as §2

[12] = test system: susceptible hexaploid check / susceptible wheat plants; assay: Tolerance test, susceptible hexaploid check; type: in vivo, T. aestivum
Source text: In all the following discussion, the application rate of the imidazolinone herbicide imazamox that was used in the inheritance studies was 20 grams per hectare.
as §7

[13] = test system: susceptible durum line used as a check; assay: Tolerance test, susceptible durum check; type: in vivo, T. turgidum ssp durum; conditions: 80 g/h of imazamox
[14] = test system: Tea1 15A; assay: Seedling injury rating, two-gene line Tea1 15A; type: in vivo, wheat
Experimental: as §2

[15] = higher rate, 600 grams per hectare
[16] = lower rate, 200 grams per hectare

## COCc1cnc(C2=NC(C)(C(C)C)C(=O)N2)c(C(=O)O)c1 (centres unmarked) [imazamox]
[1]
  plants identified as resistant (no injury from herbicide application): 52/390
[2]
  plants killed: No plants were killed
  seedling injury: injured at both rates
[3]
  injury of plants scored as tolerant: sustained some injury
[4]
  plants identified as tolerant: Five
[5]; 40 g/ha rate, field
  tolerance: excellent tolerance
[5]; 1999, three times during the growing season
  overall crop injury: only slight injury
[5]; 2000
  overall crop injury: no injury
[6]; 200 and 600 grams per hectare
  plants killed: No plants were killed
[6]; 200 and 600 grams per hectare, line still segregating
  seedling injury: some plants exhibiting injury at both rates
[6]; highest rate, 600 grams per hectare
  plants without injury: approximately half the plants had no injury
[7]; F4:5 lines, 80 g/h of imazamox
  tolerance of plants: all plants were tolerant
[7]; F4:5 lines, 124 plants treated with 80 g/h
  susceptible plants: no susceptible plants were found
[7]; F4 plants, 80 g/h imazamox
  survival of plants: All 53 F4 plants tested survived
[8]; 40 grams of imazamox, field
  susceptibility of plants: all plants dying
[8]; 2000, non-herbicide tolerant check
  overall crop injury: virtually killed
[9]
  tolerance: tolerant
[10]
  fully resistant plants: 11
  plants that showed some injury: 7
  susceptible plants: 6
[11]; 200 and 600 grams per hectare
  plants killed: No plants were killed
[11]; [15]
  seedling injury: all were injured
[11]; [16]
  seedling injury: No injury
[12]; 20 g/ha imazamox
  plant kill: killed
[12]; 20 grams per hectare
  plant kill at the rate of the inheritance studies: sufficient to kill
[13]
  plant kill: killed
[14]; 200 and 600 grams per hectare
  plants killed: No plants were killed
[14]; [15]
  seedling injury: all were injured
[14]; [16]
  seedling injury: No injury

From US9879235B2, “Wheat plants having increased resistance to imidazolinone herbicides” (University of Saskatchewan, priority 2001, dated 2018)
